Assay results as given in ChEMBL document CHEMBL3396963, “Scaffold hopping: exploration of acetanilide-containing uracil analogues as potential NNRTIs” (Bioorg Med Chem, 2015).
The source made the active and inactive calls. The calls are words filed in the database; no cut-off is given here.

Legend:
[1] = tested on: Human immunodeficiency virus 1; assay: Antiviral activity against HIV1 3B infected in human MT4 cells assessed as inhibition of virus-induced cytopathogenic effect; format: functional, organism-based; details: Human immunodeficiency virus 1, 3B
[2] = Cytotoxicity against human MT4 cells assessed as reduction in cell viability; format: cell-based
[3] = Selectivity index, ratio of CC50 for human MT4 cells to EC50 for HIV1 3B infected in human MT4 cells; format: toxicity, cell-based; details: HIV-1 3B infected MT4 cells, read-out: Ratio CC50/EC50
[4] = target: T1, Human immunodeficiency virus type 1 reverse transcriptase (Human immunodeficiency virus 1, UniProt Q72547); assay: Inhibition of HIV1 recombinant wild type reverse transcriptase p66/p51 pre-incubated with compound before enzyme addition using poly(rA) template and measured after 40 mins by picogreen based spectrofluorometry
[5] = tested on: Human immunodeficiency virus 1; assay: Antiviral activity against HIV1 3B expressing reverse transcriptase K103N/Y181C mutant infected in human MT4 cells assessed as inhibition of virus-induced cytopathogenic effect; format: functional, organism-based
[6] = tested on: Human immunodeficiency virus 1; assay: Antiviral activity against HIV1 3B infected in human MT4 cells exposed to MT4 cell CC50 level of compound added after 1 to 25 hrs post virus infection following 1 hr virus adsorption period assessed as inhibition of virus production measured at 31 hrs post infection by p24 ELISA method; format: functional, organism-based
[7] = tested on: Human immunodeficiency virus 1; assay: Antiviral activity against HIV1 3B infected in human MT4 cells exposed to MT4 cell CC50 level of compound added after 1 to 25 hrs post virus infection following 1 hr virus adsorption period assessed as assessed as inhibition of virus-induced cytopathogenic effect; format: functional, organism-based
[8] = target: T1, Human immunodeficiency virus type 1 reverse transcriptase; assay: Inhibition of HIV1 ribonuclease H pre-incubated with compound before enzyme addition using RNA/DNA heteroduplex and measured after 60 mins by picogreen based spectrofluorometry
[9] = target: Human immunodeficiency virus type 1 reverse transcriptase (Human immunodeficiency virus 1, UniProt Q72547, L100I); assay: Inhibition of HIV1 reverse transcriptase L100I mutant using radioactively-labeled […] substrate and activated DNA as template-primer complex
[10] = target: Human immunodeficiency virus type 1 reverse transcriptase (Human immunodeficiency virus 1, UniProt Q72547, K103N); assay: Inhibition of HIV1 reverse transcriptase K103N mutant using radioactively-labeled […] substrate and activated DNA as template-primer complex
[11] = target: Human immunodeficiency virus type 1 reverse transcriptase (Human immunodeficiency virus 1, UniProt Q72547, V106A); assay: Inhibition of HIV1 reverse transcriptase V106A mutant using radioactively-labeled […] substrate and activated DNA as template-primer complex
[12] = target: Human immunodeficiency virus type 1 reverse transcriptase (Human immunodeficiency virus 1, UniProt Q72547, Y181C); assay: Inhibition of HIV1 reverse transcriptase Y181C mutant using radioactively-labeled […] substrate and activated DNA as template-primer complex
[13] = target: Human immunodeficiency virus type 1 reverse transcriptase (Human immunodeficiency virus 1, UniProt Q72547, G190A); assay: Inhibition of HIV1 reverse transcriptase G190A mutant using radioactively-labeled […] substrate and activated DNA as template-primer complex
[14] = target: Human immunodeficiency virus type 1 reverse transcriptase (Human immunodeficiency virus 1, UniProt Q72547, K103N/Y181C); assay: Inhibition of HIV1 reverse transcriptase K103N/Y181C mutant using radioactively-labeled […] substrate and activated DNA as template-primer complex

Work on `Cc1cc(C)cc(Cn2c(=O)ccn(CC(=O)Nc3ccccc3Cl)c2=O)c1` yielded an EC50 [1] of 1.71 µM, a CC50 [2] of 28.5 µM and a selectivity ratio [3] of 17. For the same molecule, the IC50 [4] was 15.7 µM, the inhibition [5] was “inactive” and the inhibition [6] was “inactive”. For the same molecule, the inhibition [7] was “inactive” and the IC50 [8] was “Not Active”.
Molecule `Cc1cc(C)cc(Cn2c(=O)ccn(CC(=O)Nc3ccccc3C)c2=O)c1` has an EC50 [1] of 7.68 µM, a CC50 [2] of 292 µM and a selectivity ratio [3] of 38. For the same molecule, the IC50 [4] was 68.8 µM, the inhibition [5] was “inactive” and the inhibition [6] was “inactive”. For the same molecule, the inhibition [7] was “inactive” and the IC50 [8] was “Not Active”.
In the case of `Cc1cc(C)cc(Cn2c(=O)ccn(CC(=O)NCc3ccccc3)c2=O)c1`, the EC50 [1] is reported as > 191 µM, the CC50 [2] is reported as 191 µM and the selectivity ratio [3] is reported as < 1. The IC50 [4] was 194 µM, the inhibition [5] was “inactive” and the inhibition [6] was “inactive”. For the same molecule, the inhibition [7] was “inactive” and the IC50 [8] was “Not Active”.
Work on `Cc1cc(C)cc(Cn2c(=O)ccn(CC(=O)Nc3cccc(C)c3C)c2=O)c1` yielded an EC50 [1] of 35.8 µM, a CC50 [2] of 276 µM and a selectivity ratio [3] of 8. For the same molecule, the IC50 [4] was > 300 µM, the inhibition [5] was “inactive” and the inhibition [6] was “inactive”. The inhibition [7] was “inactive” and the IC50 [8] was “Not Active”.
In the case of `O=C1Nc2ccc(Cl)cc2[C@@](C#CC2CC2)(C(F)(F)F)O1` [EFAVIRENZ], the CC50 [2] is reported as > 6 µM.
For `Cn1c(=O)ccn(Cc2ccccc2OCC(=O)Nc2cccc(Cl)c2)c1=O`, the EC50 [1] was > 288 µM, the CC50 [2] was 288 µM and the selectivity ratio [3] was < 1. The Ki [4] was > 100 µM.
Molecule `Cc1cc(Br)cc(Cn2c(=O)ccn(CC(=O)Nc3ccccc3)c2=O)c1` has an EC50 [1] of 2.01 µM, a CC50 [2] of 33.1 µM and a selectivity ratio [3] of 17. For the same molecule, the IC50 [4] was 12.1 µM, the inhibition [5] was “inactive” and the inhibition [6] was “inactive”. For the same molecule, the inhibition [7] was “inactive” and the IC50 [8] was “Not Active”.
For `Cn1c(=O)c(F)cn(Cc2ccccc2OCC(=O)Nc2ccccc2Cl)c1=O`, the EC50 [1] was > 30.3 µM, the CC50 [2] was 30.3 µM and the selectivity ratio [3] was < 1. The Ki [4] was > 100 µM.
In the case of `Cc1ccccc1NC(=O)COc1ccccc1Cn1ccc(=O)n(C)c1=O`, the EC50 [1] is reported as > 152 µM, the CC50 [2] is reported as 152 µM and the selectivity ratio [3] is reported as < 1. For the same molecule, the Ki [4] was > 100 µM.
For `Cn1c(=O)ccn(Cc2ccccc2OCC(=O)Nc2cc(Cl)ccc2Cl)c1=O`, the EC50 [1] was > 29.5 µM, the CC50 [2] was 29.5 µM and the selectivity ratio [3] was < 1. The Ki [4] was > 100 µM.
With `O=C(Cn1ccc(=O)n(Cc2cccc3ccccc23)c1=O)Nc1ccccc1Cl` the EC50 [1] was 7.94 µM, the CC50 [2] was 207 µM and the selectivity ratio [3] was 26. The IC50 [4] was 44.5 µM, the inhibition [5] was “inactive” and the inhibition [6] was “inactive”. For the same molecule, the inhibition [7] was “inactive” and the IC50 [8] was “Not Active”.
With `Cc1ccnc2c1NC(=O)c1cccnc1N2C1CC1` [NEVIRAPINE] the CC50 [2] was > 15 µM.
With `Cn1c(=O)ccn(Cc2ccccc2OCC(=O)Nc2ccc(Cl)cc2)c1=O` the EC50 [1] was > 100 µM, the CC50 [2] was 100 µM and the selectivity ratio [3] was < 1. For the same molecule, the Ki [4] was > 100 µM.
For `Cn1c(=O)c(Cl)cn(Cc2ccccc2OCC(=O)Nc2ccccc2Cl)c1=O`, the EC50 [1] was > 9.37 µM, the CC50 [2] was 9.37 µM and the selectivity ratio [3] was < 1. The Ki [4] was > 100 µM.
With `Cn1c(=O)ccn(Cc2ccccc2OCC(=O)Nc2ccccc2)c1=O` the EC50 [1] was > 153 µM, the CC50 [2] was 153 µM and the selectivity ratio [3] was < 1. The Ki [4] was > 100 µM.
For `Cn1c(=O)ccn(Cc2ccccc2OCC(=O)Nc2ccccc2Cl)c1=O`, the EC50 [1] was > 141 µM, the CC50 [2] was 141 µM and the selectivity ratio [3] was < 1. For the same molecule, the Ki [4] was > 100 µM.
`COc1ccccc1NC(=O)Cn1ccc(=O)n(Cc2cc(C)cc(C)c2)c1=O` gave an EC50 [1] of 14.5 µM, a CC50 [2] of 227 µM and a selectivity ratio [3] of 16. For the same molecule, the IC50 [4] was 211 µM, the inhibition [5] was “inactive” and the inhibition [6] was “inactive”. The inhibition [7] was “inactive” and the IC50 [8] was “Not Active”.
In the case of `CCCn1c(=O)ccn(Cc2ccccc2OCC(=O)Nc2ccccc2Cl)c1=O`, the EC50 [1] is reported as > 25.4 µM, the CC50 [2] is reported as 25.4 µM and the selectivity ratio [3] is reported as < 1. The Ki [4] was > 100 µM.
With `O=C(Cn1ccc(=O)n(Cc2cc(Cl)cc(Cl)c2)c1=O)Nc1ccccc1Cl` the EC50 [1] was 3.26 µM, the CC50 [2] was 31.1 µM and the selectivity ratio [3] was 10. The IC50 [4] was 12.7 µM, the Ki [4] was 4.5 µM and the inhibition [5] was “inactive”. It also gave a Ki [9] of 15.9 µM, a Ki [10] of 63.3 µM and a Ki [11] of 67.6 µM. For the same molecule, the Ki [12] was 15.4 µM, the Ki [13] was 20 µM and the Ki [14] was 69.9 µM. The inhibition [6] was “inactive”, the inhibition [7] was “inactive” and the IC50 ([8]; read-out: IC50) was 149 µM.
With `Cc1cn(Cc2ccccc2OCC(=O)Nc2ccccc2Cl)c(=O)n(C)c1=O` the EC50 [1] was > 14.8 µM, the CC50 [2] was 14.8 µM and the selectivity ratio [3] was < 1. For the same molecule, the Ki [4] was > 100 µM.
With `C=CCn1c(=O)ccn(Cc2ccccc2OCC(=O)Nc2ccccc2Cl)c1=O` the EC50 [1] was > 30.6 µM, the CC50 [2] was 30.6 µM and the selectivity ratio [3] was < 1. The Ki [4] was > 100 µM.
For `Cc1cc(C)cc(Cn2c(=O)ccn(CC(=O)Nc3ccc(Cl)cc3)c2=O)c1`, the EC50 [1] was 7.29 µM, the CC50 [2] was 77.5 µM and the selectivity ratio [3] was 11. The IC50 [4] was 62.9 µM, the inhibition [5] was “inactive” and the inhibition [6] was “inactive”. The inhibition [7] was “inactive” and the IC50 [8] was “Not Active”.
For `Cc1cc(C)cc(Cn2c(=O)ccn(CC(=O)Nc3cccc(Cl)c3)c2=O)c1`, the EC50 [1] was 29.5 µM, the CC50 [2] was 167 µM and the selectivity ratio [3] was 6. The IC50 [4] was 114 µM, the inhibition [5] was “inactive” and the inhibition [6] was “inactive”. The inhibition [7] was “inactive” and the IC50 [8] was “Not Active”.
For `Cc1cc(C)cc(Cn2c(=O)ccn(CC(=O)Nc3ccccc3)c2=O)c1`, the EC50 [1] was 9.68 µM, the CC50 [2] was 242 µM and the selectivity ratio [3] was 25. For the same molecule, the IC50 [4] was 79.3 µM, the inhibition [5] was “inactive” and the inhibition [6] was “inactive”. For the same molecule, the inhibition [7] was “inactive” and the IC50 [8] was “Not Active”.
